Assay results taken from US20240181049A1, “HARNESSING THE POWER OF MICROBIOTA AND METABOLITES FOR THE TREATMENT OF CANCER” (UTI LIMITED PARTNERSHIP, priority 2019, published 2024).

Assays:
[1] = test system: A2AR-deficient CD4^+ T cells; assay: A2AR-deficient naive CD4+ T cells with anti-CD3/anti-CD28 coated beads; type: cell-based, mice
Procedure: FIG. 16A-16J: Context dependent effect of inosine on Th1 T cell differentiation. (a) Naïve CD4^+ T cells were co-cultured with bone marrow derived dendritic cells without IFN-γ. Quantification of T-bet^+CD3e^+CD4^+ T cells 48 hours after co-culture in the presence or absence of inosine and anti-CTLA-4, as indicated. (b) Naïve CD4^+ T cells were cultured anti-CD3/anti-CD28 coated beads at a ratio of 1:1 without IFN-γ for 48 hours. Representative plot and quantification of IL12Rβ2 surface expression on CD4^+ T cells in the presence or absence of inosine (left and right panel). (c) Quantification of T-bet^+CD3e^+CD4^+ T cells 48 hours after co-culture in the presence or absence of inosine, db-cAMP and anti-CTLA-4 as indicated. […] Quantification of T-bet^+CD3e^+CD4^+ T cells 48 hours after co-culture in the presence or absence of inosine or db-cAMP (e) Representative plot and quantification (left and right panel) of pCREB expression of anti-CD3/anti-CD28 bead co-cultured CD4^+ T cells in the presence or absence of inosine or db-cAMP 1 hour after stimulation. […] Il12rb2 and Ifng gene transcripts (normalized to Gapdh) were evaluated 24 and 48 hours following inosine (1 mM) stimulation. […] Analysis through quantitative PCR assay (h) Naïve CD4^+ T cells were cultured with anti-CD3/anti-CD28 coated beads at a ratio of 1:1 without IFN-γ for 24 hours. […]

MC38 tumor cells = assay: MC38 tumor cell viability in vitro; type: cell-based; settings: direct exposure in vitro, 72 hours
Procedure: FIG. 17A-17B. […] (a) MC38 tumor cells were treated with the indicated doses of inosine in vitro for 72 hours. Cell death and survival was assessed through flow cytometry. (b) MC38 tumor cells expressing full length ovalbumin (MC38-OVA) were treated with the indicated doses of inosine in vitro for 72 hours. In parallel, OVA-specific naïve CD4 and CD8 T cells from spleens of OT-II and OT-I mice, respectively, were activated with anti-CD3/anti-CD28 beads and rmIL-2 (20 IU/ml) for 72 hours. Inosine was then washed away from conditioned MC38-OVA cells and fresh medium together with activated T cells were added (100,000 MC38-OVA cells+25,000 CD4 cells+25,000 CD8 cells). 72 hours later, cell death and survival of MC38-OVA cells was assessed through flow cytometry. Grey and black dash-dotted lines indicate MC38-OVA cell viability and death when co-cultured with naïve OVA-specific CD4 and CD8 T cells. Data are mean±SEM and pooled from two individual experiments. n=6 biological replicates/condition. #, & P<0.05, **, P<0.01; (**=0.0001 vs 10 mM, #0.001 vs 10 mM and & 1 vs 10 mM)

A2AR = A2AR (Homo sapiens, UniProt P29274); settings: compared to adenosine; cited from earlier work
Chain of A2AR (P29274 whole entry): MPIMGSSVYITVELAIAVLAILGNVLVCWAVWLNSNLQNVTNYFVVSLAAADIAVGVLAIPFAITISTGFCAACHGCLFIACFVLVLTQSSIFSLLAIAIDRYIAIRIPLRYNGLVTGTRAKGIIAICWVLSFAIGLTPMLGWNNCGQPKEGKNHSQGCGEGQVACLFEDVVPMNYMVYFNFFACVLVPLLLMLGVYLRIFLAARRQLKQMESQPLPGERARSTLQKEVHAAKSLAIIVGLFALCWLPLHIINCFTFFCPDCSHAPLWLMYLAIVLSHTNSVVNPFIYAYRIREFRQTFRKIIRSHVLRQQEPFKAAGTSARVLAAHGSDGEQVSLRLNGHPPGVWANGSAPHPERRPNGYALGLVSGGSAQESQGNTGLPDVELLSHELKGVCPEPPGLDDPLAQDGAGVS

SMILES: OC[C@H]1O[C@@H](n2cnc3c(O)ncnc32)[C@H](O)[C@@H]1O [inosine]
- Th1 differentiation and phosphorylation of CREB [1]: absent
- tumor cell viability (MC38 tumor cells): did not exert any effects on tumor cell viability
- tumor cell viability (MC38 tumor cells; listed as Inosine): does not directly impact tumor cell viability
- A2AR-dependent signaling bias, preference for ERK1/2 phosphorylation (A2AR): 3.3 fold
